This is an account of results in patent US6060505A (priority 1999, dated 2000).

The test system of series [1] is B16/F10 melanoma cell line. As to the kind of experiment: cells. It is filed as cell-based. The settings on record: for cytostatic / cytotoxic effect: 3 uM. As for the experimental part: The effect of bryostatin 1 and phorbol 12-myristate 13-acetate (PMA) on the proliferation of the B16/F10 melanoma cell line was first determined. Bryostatin 1 inhibited [^3 H]thymidine incorporation with an ED50 of 600±80 nM (n=3) and with a maximum inhibition of 60% (FIG. 2A). […] The effect on cell growth of chronic treatment with bryostatin 1 or PMA was also determined. […] In contrast to bryostatin 1, PMA increased the cell growth by 75±10% (n=3) at a dose of 10 nM; the dose response curve was biphasic, with smaller effects at higher and lower applied doses (FIG. 2B).
During the 4-day treatment schedule, the number of cells in the control group increased 80 to 100-fold.

The test system of series [2] is B16/F10 melanoma cell line. As to the kind of experiment: [3H]thymidine incorporation assay in melanoma cells (one day treatment). It counts as cell-based. The settings on record: for IC50: read-out: ED50, inhibition of [3H]thymidine incorporation. The source says:
FIG. 2A depicts the percentage of incorporation of [^3 H]thymidine relative to a control sample (y-axis) plotted as a function of the concentration (nM) of bryostatin 1 (squares) or 26-epibryostatin 1 (circles)
(§1) The unmodified and C-26 modified bryostatins were used in [^3 H]thymidine incorporation and cell proliferation assays. The phorbol ester PMA, a ligand for protein kinase C was also used in this example to provide a separate control sample. The selection of PMA as a control sample is particularly appealing since bryostatins antagonize a subset of the actions of PMA. [^3 H]Thymidine incorporation is a measure of DNA synthesis, which is often used as a marker of cell replication. Chronic cell growth assays are an alternative measure of cell growth, usually performed over longer periods of time.
(§2) For [^3 H]-thymidine incorporation assays, melanoma cells growing in log phase at a density of 40-50% confluency were treated for one day with the indicated compound.

The subject of a further series is C57BL/6 mice. As to the kind of experiment: in vivo toxicity in C57BL/6 mice, 7 days observation. The method, then:
C57BL/6 mice were injected with either 500 ug/kg or 1500 ug/kg 26-epi-bryostatin 1 or 150 ug/kg or 500 ug/kg bryostatin 1.

The subject of series [3] is [3H]thymidine incorporation. As to the kind of experiment: [3H]thymidine incorporation with or without bisindolyl-maleimide I. It is filed as cell-based. The settings on record: for [3H]thymidine incorporation expressed as percent of control: bryostatin 1 or epi-bryostatin 1 3 uM. As for the experimental part:
as §2
(§3) Bisindolyl-maleimide I was used to inhibit both PMA and bryostatin 1 induced protein kinase C activity and bryostatin 1 induced inhibition of [^3 H]thymidine incorporation.
The effect of bisindolyl-maleimide I cotreatment on induction of protein kinase C activity and [^3 H]thymidine incorporation in response to PMA or bryostatin 1.
For orientation: Incorporation of labelled thymidine or its analogues reports DNA synthesis.

The subject of series [4] is B16-F10 melanoma cell line. As to the kind of experiment: chronic cell growth (cell proliferation) assay, 4 days. It is filed as cell-based. The settings on record: for IC50: read-out: ED50, dose required to reduce cell growth by 50%, 5760 min.
Description: FIG. 2B depicts the results of a chronic cell growth assay wherein the number of cells expressed as a percentage of a control sample (y-axis) are plotted as a function of the concentration (nM) of bryostatin 1 (squares), 26-epibryostatin 1 (circles), or PMA (triangles).
as §1
For the cell proliferation assays, the B16-F10 melanoma cell line with high pulmonary metastatic potency (from the laboratory of Dr. I. J. Fidler, Frederick Cancer Research and Development Center, Frederick, Md.) were plated at a density of 10^3 cells/well in Costar 12-well tissue culture plates. The cells were then treated with different concentrations of bryostatin 1, 26-epi-bryostatin 1, or PMA in 0.1% DMSO 1 and 3 days after plating. Total cell number was determined 4 days after plating.

The subject of series [5] is protein kinase C. The settings on record: cited from earlier work.
Series [6] deals with protein kinase C. The conditions noted are these: cited from earlier work. The source holds these as a separate data set.
The test system of series [7] is protein kinase C. It counts as cell-based. The conditions noted are these: for fold increase of protein kinase C activity: PMA 10 nM, bryostatin 1 3 uM, 10 min. As for the experimental part:
as §3
Protein kinase C activity was assayed in cell lysates by measuring the incorporation of ^32 P from [γ-^32 P]ATP into acetylated myelin basic protein peptide (4-14) (Ac-MBP(4-14)) by methods known in the art (Nakadate et al., Biochem. Pharmacol., 37, 1541-1545 (1988)). The cells were treated at 60-75% confluency with bryostatin 1, 26-epi-bryostatin 1 and/or bisindolyl-maleimide I for 10 min. The cells were lysed by sonication in 20 mM Tris-HCl, pH 7.4, containing 5 mM EGTA and 20 uM leupeptin. 5 ul of cell lysate was added to 15 ul kinase buffer (20 mM HEPES, pH 7.5, 10 mM MgCl2, 0.5 mM CaCl2, 1 mM 4-(2-aminoethyl)benzenesulfonyl fluoride, 20 uM leupeptin, and 10 ug/ml aprotinin) containing 50 uM substrate, and 2 uCi [γ-^32 P]ATP at a concentration 50 uM ATP. The kinase reaction was incubated for 10 minutes at 30 ° C. The incorporated radioactivity was measured with a Pharmacia Biotech 1218 liquid scintillation counter.

The subject of series [8] is lymphoma, renal cancer, melanoma, leukemia, and ovarian cancer. The conditions noted are these: cited from earlier work.
The test system of the next series is mice. The settings on record: cited from earlier work.
In a further series the test system is humans. The conditions noted are these: three infusions of 2 μg/kg; cited from earlier work.
Where [9] appears, read: with BIM-I (1 uM), PMA 10 nM, 1440 min.
Where [10] appears, read: without BIM-I, PMA 10 nM, 1440 min.

The structures appear in SMILES notation. Read-outs that look alike come from different tables or passages of the source. Some results are limits rather than exact numbers.

With `CCCC=CC=CC(=O)OC1C(=CC(=O)OC)CC2CC(C(C)O)OC(=O)CC(O)CC3CC(OC(C)=O)C(C)(C)C(O)(CC4CC(=CC(=O)OC)CC(C=CC(C)(C)C1(O)O2)O4)O3` (stereo not drawn) [26-epi-bryostatin 1], the “cytostatic / cytotoxic effect” value in series [1] was “powerful cytostatic agent with no cytotoxic effect”. Also, in series [1] (after treatment in the cell growth assay, 5760 min, 3 µM), the “cell death (trypan blue exclusion)” value is on record as “less than 1%”. In addition, in series [2] (B16/F10 melanoma, highest dose tested 3 uM), the “maximum inhibition of [3H]thymidine incorporation” value is 80±5%. For the same compound, in series [2] (compared with bryostatin 1), the “inhibitory potency relative to bryostatin 1, [3H]thymidine incorporation” value was “inhibitory potency similar to that of bryostatin 1” and the “maximum extent of inhibition relative to bryostatin 1, [3H]thymidine incorporation” value is “greater than for bryostatin 1”. In addition, the IC50 in series [2] (B16/F10 melanoma, one day, 1440 min) was 0.6 ± 0.12 µM. Besides, the toxicity entry in the series on C57BL/6 mice (500 ug/kg injected) is given as “only relatively minor toxic effects”. Moreover, the toxicity entry with C57BL/6 mice (1500 ug/kg injected) is on record as “only relatively minor toxic effects”. For the same compound, in the series on C57BL/6 mice (compared with bryostatin 1), the “therapeutic index relative to bryostatin 1” value is reported as “higher therapeutic index” and the “toxicity relative to bryostatin 1” value is “significantly less toxic than bryostatin 1”. In series [3] (setting [9]), the “[3H]thymidine incorporation expressed as percent of control” value is on record as 20 ± 5% of control. The “[3H]thymidine incorporation expressed as percent of control” value in [3] (setting [10]) was 21 ± 3% of control. The growth arrest entry in series [4] (3 uM, 4 days) is listed as “almost complete growth arrest”. In addition, the “inhibition of cell growth (maximal, highest dose tested)” value in series [4] (4 days, 3 uM) is reported as 97±3%. In [4] (compared with bryostatin 1), the “maximum extent of inhibition relative to bryostatin 1, cell growth” value is “greater than for bryostatin 1” and the “reduction in potency relative to bryostatin 1, chronic cell growth assay” value was 3 fold. Moreover, the IC50 in [4] (chronic treatment, 4 days) turned out to be 0.14 ± 0.03 µM. Further, in the series on protein kinase C [5] (compared with bryostatin 1), the “affinity for protein kinase C of 26-epi-bryostatin 1” value was “significantly reduced affinity”.
With `CN(C)CCCn1cc(C2=C(c3c[nH]c4ccccc34)C(=O)NC2=O)c2ccccc21` [BIM-I, bisindolyl-maleimide I], in the series on protein kinase C [6], the “protein kinase C inhibition” value is “powerful and specific protein kinase C inhibitor”. Also, in the series on protein kinase C [7] (BIM-I 1 uM, PMA 10 nM or bryostatin 1 3 uM), the “inhibition of PMA or bryostatin 1 induced protein kinase C enzymatic activity” value is “completely inhibited”. The “effect on PMA-induced increase in [3H]thymidine incorporation” value in [3] (BIM-I 1 uM, PMA 10 nM) is recorded as “inhibited the modest PMA-induced increase”. Further, in [3] (BIM-I 1 uM, bryostatin 1 3 uM), the “effect on bryostatin induced decrease in thymidine incorporation” value is listed as “slightly enhanced” and the “effect on inhibition of thymidine incorporation by bryostatin 1” value is listed as “did not block”. Further, the “[3H]thymidine incorporation expressed as percent of control” value in series [3] (with BIM-I (1 uM), PMA 10 nM) is 91 ± 2% of control.
In the case of `CCC/C=C/C=C/C(=O)O[C@H]1/C(=C/C(=O)OC)C[C@H]2C[C@H]([C@@H](C)OC(C)=O)OC(=O)C[C@H](O)C[C@@H]3C[C@H](OC(C)=O)C(C)(C)[C@](O)(C[C@@H]4C/C(=C/C(=O)OC)C[C@H](/C=C/C(C)(C)[C@]1(O)O2)O4)O3` [C-26 acetate ester of bryostatin], the “binding activity / affinity for protein kinase C” value in the series on protein kinase C [5] was “decreased binding activity”.
As to `CCCC(=O)O[C@H]1/C(=C/C(=O)OC)C[C@H]2C[C@H]([C@H](C)O)OC(=O)C[C@H](O)C[C@@H]3C[C@H](OC(=O)C(C)(C)C)C(C)(C)[C@](O)(C[C@@H]4C/C(=C/C(=O)OC)C[C@H](/C=C/C(C)(C)[C@]1(O)O2)O4)O3` [C-26 epimer of bryostatin 4], the “binding activity / affinity for protein kinase C” value in the series on protein kinase C [5] is given as “decreased binding activity”.
For `CCCCCCCCCCCCCC(=O)O[C@@H]1[C@@H](C)[C@@]2(O)[C@@H](C=C(CO)C[C@]3(O)C(=O)C(C)=C[C@@H]23)[C@@H]2C(C)(C)[C@]12OC(C)=O` [PMA, phorbol 12-myristate 13-acetate], the activity at 0.01 µM in series [2] (Mus musculus, B16-F10, 24 h, 10 nM, read-out: [3H]thymidine incorporation (slight increase)) was found to be 120 ± 20%. For the same compound, in series [2] (dose range between 0.1 nM to 3 uM), the “effect on [3H]thymidine incorporation” value was “no significant effect”. The “fold increase of protein kinase C activity” value in the series on protein kinase C [7] (with BIM-I (1 uM)) worked out at 1.08 ± 0.1 fold; in the series on protein kinase C [7] (without BIM-I) it was 4.4 ± 0.1 fold. Moreover, the “[3H]thymidine incorporation expressed as percent of control” value in [3] (with BIM-I (1 uM), PMA 10 nM) is 98 ± 11% of control; in [3] (without BIM-I, PMA 10 nM) it was 120 ± 22% of control. The activation at 0.01 µM in [4] (Mus musculus, B16-F10, 96 h, 10 nM, chronic treatment, read-out: increase in cell growth) turned out to be 75 ± 10%. Besides, the “dose response curve of cell growth” value in series [4] (smaller effects at higher and lower applied doses than 10 nM) was “biphasic”.
Take `CCCC=CC=CC(=O)OC1C(=CC(=O)OC)CC2CC(C(C)O)OC(=O)CC(O)CC3CC(OC(C)=O)C(C)(C)C(O)(CC4CC(=CC(=O)OC)CC(C=CC(C)(C)C1(O)O2)O4)O3` (centres unmarked) [bryostatin 1]: the “cytostatic / cytotoxic effect” value in [1] is recorded as “arrested growth rather than killed cells”. Also, the cytotoxicity at 3 µM in series [1] (Mus musculus, B16-F10, 96 h, after treatment in the cell growth assay, read-out: cell death (trypan blue exclusion)) was less than 1%. For the same compound, the antineoplastic effectiveness result in [8] is “directly shown to be effective”. In [2] (Mus musculus, B16-F10, 3 h, read-out: maximum inhibition of [3H]thymidine incorporation, B16/F10 melanoma, highest dose tested 3 uM), the inhibition at 3 µM was found to be 60%. Further, the IC50 was 0.6 ± 0.08 µM in series [2] (Mus musculus, B16-F10, 24 h) and 0.05 ± 0.015 µM in [4] (chronic treatment, 4 days). In addition, the lethal dose result with mice is “greater than 200 μg/kg”. For the same compound, the toxicity result with C57BL/6 mice (150 ug/kg injected) was “only relatively minor toxic effects”. In the series with C57BL/6 mice (500 ug/kg bryostatin 1 injected), the “toxicity, lethality” value is “lethal for all animals tested by the third day after injection”. Also, the “fold increase of protein kinase C activity” value was 1.07 ± 0.04 fold in the series on protein kinase C [7] (with BIM-I (1 uM)) and 3.02 ± 0.3 fold in the series with protein kinase C [7] (without BIM-I). Further, the “inhibition of [3H]thymidine incorporation of bryostatin 1 plus bisindolyl-maleimide I relative to 26-epi-bryostatin 1 alone” value in series [3] (combination with BIM-I) was “same level of inhibition”. The “[3H]thymidine incorporation expressed as percent of control” value in [3] (setting [9]) is reported as 25 ± 5% of control; in series [3] (setting [10]) it was 43 ± 2% of control. In addition, the side-effects entry in the series on humans is “significant side-effects including myalgia and hypotension”. The “inhibition of cell growth (maximal, highest dose tested)” value in [4] (4 days, 3 uM) is listed as 75±5%.
